# Measurements reported in ChEMBL document CHEMBL1152860, “Synthesis and antiproliferative activity of 3-amino-N-phenyl-1H-indazole-1-carboxamides” (2009).
# Calls of active or inactive are those of the source. The rule behind the calls is not given here.
# How the values were obtained:
# [1] = tested on: T47D; assay: Growth inhibition of human T47D cells after 48 hrs by SRB assay; type: functional
# [2] = tested on: OVCAR-4; assay: Growth inhibition of human OVCAR4 cells after 48 hrs by SRB assay; type: functional; details: OVCAR-4, 48 h
# [3] = tested on: BT-549; assay: Growth inhibition of human BT549 cells after 48 hrs by SRB assay; type: functional; details: BT-549, 48 h
# [4] = tested on: SNB-19; assay: Growth inhibition of human SNB19 cells after 48 hrs by SRB assay; type: functional; details: SNB-19, 48 h
# [5] = tested on: 786-0; assay: Growth inhibition of human 786-0 cells after 48 hrs by SRB assay; type: functional; details: 786-0, 48 h
# [6] = tested on: PC-3; assay: Growth inhibition of human PC3 cells after 48 hrs by SRB assay; type: functional; details: PC-3, 48 h
# [7] = tested on: Malme-3M; assay: Growth inhibition of human MALME-3M cells after 48 hrs by SRB assay; type: functional
# [8] = tested on: IGROV-1; assay: Growth inhibition of human IGROV1 cells after 48 hrs by SRB assay; type: functional; details: IGROV-1, 48 h
# [9] = tested on: LOX IMVI; assay: Growth inhibition of human LOXIMVI cells after 48 hrs by SRB assay; type: functional
# [10] = tested on: SF-539; assay: Growth inhibition of human SF539 cells after 48 hrs by SRB assay; type: functional; details: SF-539, 48 h
# [11] = tested on: SR; assay: Growth inhibition of human SR cells after 48 hrs by SRB assay; type: functional
# [12] = tested on: RXF 393; assay: Growth inhibition of human […] cells after 48 hrs by SRB assay; type: functional; details: RXF 393, 48 h
# [13] = tested on: SK-MEL-28; assay: Growth inhibition of human SK-MEL-28 cells after 48 hrs by SRB assay; type: functional; details: SK-MEL-28, 48 h
# [14] = tested on: MCF7; assay: Growth inhibition of human MCF7 cells after 48 hrs by SRB assay; type: functional; details: MCF7, 48 h
# [15] = tested on: KM12; assay: Growth inhibition of human KM12 cells after 48 hrs by SRB assay; type: functional; details: KM12, 48 h
# [16] = tested on: K562; assay: Cell cycle arrest in human K562 cells assessed as accumulation at G2/M phase at 140 uM after 24 hrs using propidium iodide staining by flow cytometry; type: functional, cell-based
# [17] = tested on: MDA-MB-231; assay: Growth inhibition of human MDA-MB-231 cells after 48 hrs by SRB assay; type: functional; details: MDA-MB-231, 48 h
# [18] = tested on: NCI/ADR-RES; assay: Growth inhibition of human NCI/ADR-RES cells after 48 hrs by SRB assay; type: functional
# [19] = tested on: NCI-H226; assay: Growth inhibition of human NCI-H226 cells after 48 hrs by SRB assay; type: functional; details: NCI-H226, 48 h
# [20] = tested on: HCC 2998; assay: Growth inhibition of human HCC2998 cells after 48 hrs by SRB assay; type: functional; details: HCC 2998, 48 h
# [21] = tested on: MDA-MB-435; assay: Growth inhibition of human MDA-MB-435 cells after 48 hrs by SRB assay; type: functional; details: MDA-MB-435, 48 h
# [22] = tested on: DU-145; assay: Growth inhibition of human DU145 cells after 48 hrs by SRB assay; type: functional; details: DU-145, 48 h
# [23] = tested on: OVCAR-5; assay: Growth inhibition of human OVCAR5 cells after 48 hrs by SRB assay; type: functional; details: OVCAR-5, 48 h
# [24] = tested on: NCI-H322M; assay: Growth inhibition of human NCI-H322M cells after 48 hrs by SRB assay; type: functional
# [25] = tested on: A498; assay: Growth inhibition of human A498 cells after 48 hrs by SRB assay; type: functional; details: A498, 48 h
# [26] = tested on: HT-29; assay: Growth inhibition of human HT-29 cells after 48 hrs by SRB assay; type: functional; details: HT-29, 48 h
# [27] = tested on: EKVX; assay: Growth inhibition of human EKVX cells after 48 hrs by SRB assay; type: functional
# [28] = tested on: TK-10; assay: Growth inhibition of human TK10 cells after 48 hrs by SRB assay; type: functional; details: TK-10, 48 h
# [29] = tested on: NCI-H522; assay: Growth inhibition of human NCI-H522 cells after 48 hrs by SRB assay; type: functional; details: NCI-H522, 48 h
# [30] = tested on: COLO 205; assay: Growth inhibition of human COLO205 cells after 48 hrs by SRB assay; type: functional; details: COLO 205, 48 h
# [31] = tested on: UACC-62; assay: Growth inhibition of human UACC62 cells after 48 hrs by SRB assay; type: functional; details: UACC-62, 48 h
# [32] = tested on: HOP-62; assay: Growth inhibition of human HOP62 cells after 48 hrs by SRB assay; type: functional; details: HOP-62, 48 h
# [33] = tested on: SK-OV-3; assay: Growth inhibition of human SKOV3 cells after 48 hrs by SRB assay; type: functional; details: SK-OV-3, 48 h
# [34] = tested on: SF-295; assay: Growth inhibition of human SF295 cells after 48 hrs by SRB assay; type: functional; details: SF-295, 48 h
# [35] = tested on: A549; assay: Growth inhibition of human A549 cells after 48 hrs by SRB assay; type: functional; details: A549, 48 h
# [36] = tested on: SF-268; assay: Growth inhibition of human SF268 cells after 48 hrs by SRB assay; type: functional; details: SF-268, 48 h
# [37] = tested on: UO-31; assay: Growth inhibition of human UO31 cells after 48 hrs by SRB assay; type: functional; details: UO-31, 48 h
# [38] = tested on: NCI-H23; assay: Growth inhibition of human NCI-H23 cells after 48 hrs by SRB assay; type: functional; details: NCI-H23, 48 h
# [39] = tested on: SK-MEL-5; assay: Growth inhibition of human SK-MEL-5 cells after 48 hrs by SRB assay; type: functional; details: SK-MEL-5, 48 h
# [40] = tested on: SK-MEL-2; assay: Growth inhibition of human SK-MEL-2 cells after 48 hrs by SRB assay; type: functional; details: SK-MEL-2, 48 h
# [41] = tested on: OVCAR-8; assay: Growth inhibition of human OVCAR8 cells after 48 hrs by SRB assay; type: functional; details: OVCAR-8, 48 h
# [42] = tested on: NCI-H460; assay: Growth inhibition of human NCI-H460 cells after 48 hrs by SRB assay; type: functional; details: NCI-H460, 48 h
# [43] = tested on: SN12C; assay: Growth inhibition of human SN12C cells after 48 hrs by SRB assay; type: functional
# [44] = tested on: HCT-15; assay: Growth inhibition of human HCT15 cells after 48 hrs by SRB assay; type: functional; details: HCT-15, 48 h
# [45] = tested on: SW-620; assay: Growth inhibition of human SW620 cells after 48 hrs by SRB assay; type: functional; details: SW-620, 48 h
# [46] = tested on: K562; assay: Cell cycle arrest in human K562 cells assessed as accumulation at S phase at 140 uM after 24 hrs using propidium iodide staining by flow cytometry; type: functional, cell-based
# [47] = tested on: SNB-75; assay: Growth inhibition of human SNB75 cells after 48 hrs by SRB assay; type: functional; details: SNB-75, 48 h
# [48] = tested on: RPMI-8226; assay: Growth inhibition of human RPMI8226 cells after 48 hrs by SRB assay; type: functional; details: RPMI-8226, 48 h
# [49] = Growth inhibition of human Hs 578T cells after 48 hrs by SRB assay; type: functional
# [50] = tested on: HL-60(TB); assay: Growth inhibition of human HL-60(TB) cells after 48 hrs by SRB assay; type: functional; details: HL-60, 48 h
# [51] = tested on: HCT-116; assay: Growth inhibition of human HCT116 cells after 48 hrs by SRB assay; type: functional; details: HCT-116, 48 h
# [52] = tested on: HOP-92; assay: Growth inhibition of human HOP92 cells after 48 hrs by SRB assay; type: functional; details: HOP-92, 48 h
# [53] = tested on: OVCAR-3; assay: Growth inhibition of human OVCAR-3 cells after 48 hrs by SRB assay; type: functional; details: OVCAR-3, 48 h
# [54] = tested on: U-251; assay: Growth inhibition of human U251 cells after 48 hrs by SRB assay; type: functional; details: U-251, 48 h
# [55] = tested on: MOLT-4; assay: Growth inhibition of human MOLT4 cells after 48 hrs by SRB assay; type: functional; details: MOLT-4, 48 h
# [56] = tested on: CAKI-1; assay: Growth inhibition of human Caki1 cells after 48 hrs by SRB assay; type: functional; details: CAKI-1, 48 h
# [57] = tested on: ACHN; assay: Growth inhibition of human ACHN cells after 48 hrs by SRB assay; type: functional
# [58] = tested on: K562; assay: Growth inhibition of human K562 cells after 48 hrs by SRB assay; type: functional; details: K562, 48 h
# [59] = tested on: UACC-257; assay: Growth inhibition of human UACC257 cells after 48 hrs by SRB assay; type: functional; details: UACC-257, 48 h
# [60] = tested on: M14; assay: Growth inhibition of human M14 cells after 48 hrs by SRB assay; type: functional; details: M14, 48 h
# [61] = read-out: LC50 (the source's name)
compound,measurement,setting,value
O=C(Nc1cc(C(F)(F)F)ccc1F)Nc1n[nH]c2ccccc12,GI50,[1],0.215 µM
same,TGI,[1],> 100 µM
same,CC50,[1]; [61],> 100 µM
same,GI50,[2],> 100 µM
same,GI50,[3],> 100 µM
same,GI50,[4],> 100 µM
same,GI50,[5],> 100 µM
same,GI50,[6],> 100 µM
same,GI50,[7],> 100 µM
same,GI50,[8],0.758 µM
same,TGI,[8],> 100 µM
same,CC50,[8]; [61],> 100 µM
same,GI50,[9],> 100 µM
same,GI50,[10],> 100 µM
same,GI50,[11],55.4 µM
same,GI50,[12],> 100 µM
same,GI50,[13],> 100 µM
same,GI50,[14],18.2 µM
same,GI50,[15],> 100 µM
same,Activity,[16],Active
same,GI50,[17],> 100 µM
same,GI50,[18],> 100 µM
same,GI50,[19],> 100 µM
same,GI50,[20],> 100 µM
same,GI50,[21],> 100 µM
same,GI50,[22],> 100 µM
same,GI50,[23],> 100 µM
same,GI50,[24],> 100 µM
same,GI50,[25],> 100 µM
same,GI50,[26],> 100 µM
same,GI50,[27],> 100 µM
same,GI50,[28],> 100 µM
same,GI50,[29],> 100 µM
same,GI50,[30],> 100 µM
same,GI50,[31],> 100 µM
same,GI50,[32],> 100 µM
same,GI50,[33],> 100 µM
same,GI50,[34],> 100 µM
same,GI50,[35],> 100 µM
same,GI50,[36],> 100 µM
same,GI50,[37],> 100 µM
same,GI50,[38],> 100 µM
same,GI50,[39],> 100 µM
same,GI50,[40],> 100 µM
same,GI50,[41],> 100 µM
same,GI50,[42],> 100 µM
same,GI50,[43],> 100 µM
same,GI50,[44],> 100 µM
same,GI50,[45],> 100 µM
same,Activity,[46],Active
same,GI50,[47],40.1 µM
same,GI50,[48],> 100 µM
same,GI50,[49],> 100 µM
same,GI50,[50],> 100 µM
same,GI50,[51],> 100 µM
same,GI50,[52],> 100 µM
same,GI50,[53],> 100 µM
same,GI50,[54],> 100 µM
same,GI50,[55],> 100 µM
same,GI50,[56],> 100 µM
same,GI50,[57],> 100 µM
same,GI50,[58],> 100 µM
same,GI50,[59],> 100 µM
same,GI50,[60],> 100 µM
